# In PubChem BioAssay (NCI):
#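 These data come from cells grown in 96-well plates and exposed to compound for 48 hours at five concentrations. Definition used: TGI = concentration required for complete inhibition of growth.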
# What was measured:
# Experiment in all cases: growth of human tumour cells (NCI), 48 h
# SF-295 CNS = system: SF-295 CNS
# MOLT-4 leukemia = system: MOLT-4 leukemia
# EKVX NSCLC = system: EKVX NSCLC
# KM12 colon = system: KM12 colon
# HCC-2998 colon = system: HCC-2998 colon
# UACC-257 melanoma = system: UACC-257 melanoma
# ACHN renal = system: ACHN renal
# RXF 393 renal = system: RXF 393 renal
# SF-268 CNS = system: SF-268 CNS
# CAKI-1 renal = system: CAKI-1 renal
# OVCAR-3 ovarian = system: OVCAR-3 ovarian
# DMS 273 small cell lung = system: DMS 273 small cell lung
# TK-10 renal = system: TK-10 renal
# LXFL 529 NSCLC = system: LXFL 529 NSCLC
# HOP-62 NSCLC = system: HOP-62 NSCLC
# MALME-3M melanoma = system: MALME-3M melanoma
# M19-MEL melanoma = system: M19-MEL melanoma
# UACC-62 melanoma = system: UACC-62 melanoma
# OVCAR-5 ovarian = system: OVCAR-5 ovarian
# SK-MEL-2 melanoma = system: SK-MEL-2 melanoma
# HOP-18 NSCLC = system: HOP-18 NSCLC
# SNB-75 CNS = system: SNB-75 CNS
# HOP-92 NSCLC = system: HOP-92 NSCLC
# HCT-116 colon = system: HCT-116 colon
# RPMI-8226 leukemia = system: RPMI-8226 leukemia
# K-562 leukemia = system: K-562 leukemia
# XF 498 CNS = system: XF 498 CNS
# U251 CNS = system: U251 CNS
# NCI-H460 lung = system: NCI-H460 lung
# OVCAR-4 ovarian = system: OVCAR-4 ovarian
# SK-MEL-28 melanoma = system: SK-MEL-28 melanoma
# LOX IMVI melanoma = system: LOX IMVI melanoma
# OVCAR-8 ovarian = system: OVCAR-8 ovarian
# SK-OV-3 ovarian = system: SK-OV-3 ovarian
# NCI-H226 lung = system: NCI-H226 lung
# SK-MEL-5 melanoma = system: SK-MEL-5 melanoma
# COLO 205 colon = system: COLO 205 colon
# DMS 114 small cell lung = system: DMS 114 small cell lung
# NCI-H522 lung = system: NCI-H522 lung
# SNB-78 CNS = system: SNB-78 CNS
# IGROV1 ovarian = system: IGROV1 ovarian
# SF-539 CNS = system: SF-539 CNS
# KM20L2 colon = system: KM20L2 colon
# SNB-19 CNS = system: SNB-19 CNS
# A549 NSCLC = system: A549 NSCLC
# 786-0 renal = system: 786-0 renal
# HT29 colon = system: HT29 colon
# CCRF-CEM leukemia = system: CCRF-CEM leukemia
# SN12C renal = system: SN12C renal
# M14 melanoma = system: M14 melanoma
# HCT-15 colon = system: HCT-15 colon
# HL-60(TB) leukemia = system: HL-60(TB) leukemia
# SW-620 colon = system: SW-620 colon
# A498 renal = system: A498 renal
# UO-31 renal = system: UO-31 renal
# NCI-H23 lung = system: NCI-H23 lung
smiles,measurement,setting,value
Cc1ccc(Sc2ccc(C)cc2[N+](=O)[O-])c([N+](=O)[O-])c1,TGI,SF-295 CNS,> 100 µM
same,TGI,MOLT-4 leukemia,> 100 µM
same,TGI,EKVX NSCLC,> 100 µM
same,TGI,KM12 colon,> 100 µM
same,TGI,HCC-2998 colon,> 100 µM
same,TGI,UACC-257 melanoma,> 10 µM
same,TGI,ACHN renal,> 100 µM
same,TGI,RXF 393 renal,> 100 µM
same,TGI,SF-268 CNS,> 100 µM
same,TGI,CAKI-1 renal,> 10 µM
same,TGI,OVCAR-3 ovarian,> 100 µM
same,TGI,DMS 273 small cell lung,> 100 µM
same,TGI,TK-10 renal,> 100 µM
same,TGI,LXFL 529 NSCLC,> 100 µM
same,TGI,HOP-62 NSCLC,> 100 µM
same,TGI,MALME-3M melanoma,> 100 µM
same,TGI,M19-MEL melanoma,> 100 µM
same,TGI,UACC-62 melanoma,> 100 µM
same,TGI,OVCAR-5 ovarian,> 100 µM
same,TGI,SK-MEL-2 melanoma,> 100 µM
same,TGI,HOP-18 NSCLC,> 100 µM
same,TGI,SNB-75 CNS,> 100 µM
same,TGI,HOP-92 NSCLC,> 100 µM
same,TGI,HCT-116 colon,> 100 µM
same,TGI,RPMI-8226 leukemia,> 100 µM
same,TGI,K-562 leukemia,> 100 µM
same,TGI,XF 498 CNS,> 100 µM
same,TGI,U251 CNS,> 100 µM
same,TGI,NCI-H460 lung,> 100 µM
same,TGI,OVCAR-4 ovarian,> 100 µM
same,TGI,SK-MEL-28 melanoma,> 100 µM
same,TGI,LOX IMVI melanoma,> 100 µM
same,TGI,OVCAR-8 ovarian,> 100 µM
same,TGI,SK-OV-3 ovarian,> 100 µM
same,TGI,NCI-H226 lung,> 100 µM
same,TGI,SK-MEL-5 melanoma,> 100 µM
same,TGI,COLO 205 colon,> 100 µM
same,TGI,DMS 114 small cell lung,> 100 µM
same,TGI,NCI-H522 lung,> 100 µM
same,TGI,SNB-78 CNS,> 100 µM
same,TGI,IGROV1 ovarian,> 100 µM
same,TGI,SF-539 CNS,> 100 µM
same,TGI,KM20L2 colon,> 100 µM
same,TGI,SNB-19 CNS,> 100 µM
same,TGI,A549 NSCLC,> 100 µM
same,TGI,786-0 renal,> 100 µM
same,TGI,HT29 colon,> 10 µM
same,TGI,CCRF-CEM leukemia,> 100 µM
same,TGI,SN12C renal,> 100 µM
same,TGI,M14 melanoma,> 100 µM
same,TGI,HCT-15 colon,> 100 µM
same,TGI,HL-60(TB) leukemia,> 100 µM
same,TGI,SW-620 colon,> 100 µM
same,TGI,A498 renal,> 100 µM
same,TGI,UO-31 renal,> 100 µM
same,TGI,NCI-H23 lung,> 100 µM
COc1cc([C@@H]2c3cc4c(cc3[C@@H](OC(=O)c3ccccc3)C3COC(=O)[C@@H]32)OCO4)cc(OC)c1O (some centres undefined),TGI,SF-295 CNS,> 100 µM
same,TGI,MOLT-4 leukemia,41.4 µM
same,TGI,HCC-2998 colon,> 100 µM
same,TGI,ACHN renal,18.4 µM
same,TGI,SF-268 CNS,> 100 µM
same,TGI,CAKI-1 renal,79.2 µM
same,TGI,DMS 273 small cell lung,> 100 µM
same,TGI,TK-10 renal,> 100 µM
same,TGI,LXFL 529 NSCLC,> 100 µM
same,TGI,HOP-62 NSCLC,28.7 µM
same,TGI,MALME-3M melanoma,29.9 µM
same,TGI,M19-MEL melanoma,69 µM
same,TGI,OVCAR-5 ovarian,> 100 µM
same,TGI,HOP-18 NSCLC,> 100 µM
same,TGI,SNB-75 CNS,36.8 µM
same,TGI,RPMI-8226 leukemia,44 µM
same,TGI,K-562 leukemia,> 100 µM
same,TGI,NCI-H460 lung,20.9 µM
same,TGI,OVCAR-4 ovarian,> 100 µM
same,TGI,SK-MEL-28 melanoma,> 100 µM
same,TGI,LOX IMVI melanoma,84.5 µM
same,TGI,OVCAR-8 ovarian,> 100 µM
same,TGI,SK-OV-3 ovarian,> 100 µM
same,TGI,COLO 205 colon,0.963 µM
same,TGI,DMS 114 small cell lung,0.0229 µM
same,TGI,A549 NSCLC,35.6 µM
same,TGI,786-0 renal,45.5 µM
same,TGI,CCRF-CEM leukemia,> 100 µM
same,TGI,SN12C renal,26.9 µM
same,TGI,HL-60(TB) leukemia,15.4 µM
same,TGI,SW-620 colon,> 100 µM
same,TGI,UO-31 renal,33.5 µM
same,TGI,NCI-H23 lung,0.0642 µM
